SMILES strings stand for the structures.

As a reminder, the melting point is the temperature of the solid-liquid transition.

In the case of `CCOC(=O)c1cc2c(nc1C)CCCCC2`, the melting point lay within 53 to 54 °C. For `COC(=O)c1nn(C)c2ccccc12` the value was 78 to 79 °C; for `Cc1ccccc1CC(=NC#N)NC(NC(=O)CCCc1cccs1)C(C)(C)C` (stereo not drawn), 154 to 155 °C. Compound `COc1ccccc1C(=CC=O)c1ccccc1OC` registered a melting point of 59.5 to 61.5 °C. The same measure for `O=C(O)c1cc(CCl)ccc1O`: 144 to 147 °C. The same measure for `Cc1ccc(S(N)(=O)=O)cc1C(C)O` (stereo not drawn): 155 to 158 °C. For `CC(=O)N1CC(CCN2CC=C(c3c[nH]c4cc(Cl)ccc34)CC2)c2ccccc21` (stereo not drawn) the value was 169 to 170 °C; for `CNC(=O)C1CCNC(c2ccnc3ccccc23)C1` (stereo not drawn), 250 to 254 °C.

The compound `Nc1ccc(Cn2cc(C(F)(F)F)ccc2=O)cc1` registered a melting point of 97 to 98 °C.

Take `COC(=O)N(C(=O)NN=C1c2ccc(Cl)cc2CC1(O)C(=O)OC)c1ccc(OC(F)(F)F)cc1` (stereo not drawn): the melting point amounted to 168 °C. In the case of `CC(C)CCN1N=C(c2ccc(F)cc2)c2cc(Cl)ccc2CS1(=O)=O`, the melting point lay in the range of 123 to 124 °C. For `O=C(Nc1ccccc1NS(=O)(=O)c1ccc([N+](=O)[O-])cc1)c1ccc(F)cc1` the value was 265 to 266 °C; for `CC1(c2cccc(NS(C)(=O)=O)c2)C2CN(C(=O)CCc3ccsc3)CC21` (stereo not drawn), 180 °C; for `COC(=O)CCc1cc2cc(Cl)ccc2n1S(=O)(=O)c1ccc2ncsc2c1`, 134 to 138 °C. The same measure for `COCc1nc(N2CCCCC2)ncc1C(=O)OC`: 89 to 92 °C; for `COC(=O)C1=C(C)NC(C)=C(C(=O)OC)C1c1ccc(F)c(Nc2c(NCCCN3CCC(c4cccc(OC)c4)CC3)c(=O)c2=O)c1`: 205 to 207 °C; for `O=COC[C@@H]1C(=O)N[C@H]1SC(c1ccccc1)(c1ccccc1)c1ccccc1` (relative stereo): 143 to 144 °C. The same measure for `COc1ccc(N2CCN(S(=O)(=O)c3cccc(/C=C/C(=O)NO)c3)CC2)cc1`: 203 °C. Take `COc1cc(C(C)=O)cc(OC)c1OC(C)=O`: the melting point turned out to be 145 °C. Take `CC(C)CCc1nc2ccccn2c(=O)c1-c1ccc(Cl)cc1`: the melting point was in the range of 146 to 149 °C. The same measure for `CCCNC(=O)C1(CCCCN2CCC(N3Cc4ccccc4C3=O)CC2)c2ccccc2-c2cccnc21` (stereo not drawn): 52 to 54 °C; for `NNc1nc(C(F)(F)F)c(Cl)s1`: 136 to 137 °C; for `CCOc1ccc(NC(N)=S)cn1`: 142 to 146 °C.

With `COc1c(N2C[C@H](CF)[C@](C)(N)C2)c(F)cc2c(=O)c(C(=O)O)cn([C@@H]3C[C@@H]3F)c12`, the melting point was in the range of 187 to 189 °C.

As for `COc1ccc(-c2nc(SCCCSc3nc(-c4ccc(OC)cc4)c(-c4ccc(OC)cc4)[nH]3)[nH]c2-c2ccc(OC)cc2)cc1`, the melting point was in the range of 128 to 130 °C. For the compound `Cc1c2c(nn1C)N(c1ccc(Cl)cc1Cl)CCC2`, the melting point was 66.6 to 76.6 °C.

As to `CCCCNc1ccc2cc(Cl)cnc2c1C#N`, the melting point amounted to 89 °C. For `COC(=O)c1sc(Cl)nc1C(F)(F)F` the value was 32 to 34 °C. The same measure for `CC1(C)Oc2ccc(C(F)(F)F)cc2C(n2ccccc2=O)=C1CN(O)C(=O)C(F)(F)F`: 208 °C. In turn, `N#Cc1cnc2sc(CCC(=O)O)cc2c1Nc1ccc2[nH]ccc2c1` displayed a melting point of 255 °C. The compound `Cc1cc2c(=O)n(CCN3CCC(Nc4nc5ccccc5n4Cc4ccc(F)cc4)CC3)c(=S)[nH]c2s1` came in with a melting point of 236 °C. For `COc1ccc(-c2cccs2)cc1/C=C/C(=O)c1ccc(C(=O)O)cc1` the value was 195 to 196 °C; for `COc1ccc(C2(C#Cc3cccc(-c4nnc(C)s4)c3)CCCC(=O)C2)cc1OC1CCCC1` (stereo not drawn), 97 to 99 °C.

As for `Cc1ccn(-c2ccc(C(=O)O)c(C(F)(F)F)c2)n1`, the melting point was in the range of 192 to 194 °C. For `Cc1nc2c(N)nc3ccccc3c2n1CCCCNC(=O)C(C)C` the value was 160 to 161 °C. The same measure for `Cc1c(-c2ccccc2)noc1-c1ccccc1C(=O)O`: 159 to 161 °C; for `CNC(=O)N(N(CCCl)S(C)(=O)=O)S(C)(=O)=O`: 146 to 148 °C. The same measure for `CC1CN(S(C)(=O)=O)Cc2nc3c(N)nc4ccccc4c3n21` (stereo not drawn): 258 to 261 °C. The compound `C=C1C(O)C(CO)OC1n1cc(Cl)c(N)nc1=O` (stereo not drawn) gave a melting point of 168 to 170 °C. For `O=C(c1ccccc1)c1ccc[nH]1` the value was 76 to 77 °C; for `O=C(O)c1ccc2[nH]cc(CCCCN3CCCC(Cc4ccccc4)C3)c2c1` (stereo not drawn), 144 to 147 °C.

Regarding `O=C(CSc1c(O)cc(-c2ccccc2)oc1=O)c1ccccc1`, the melting point is 164 to 166 °C. `CNC(=O)n1cc(Br)cnc1=O` gave a melting point of 236 to 238 °C. For `O=C(Cc1ccc(OCc2ccc(F)cc2)cc1)NC1(c2nn[nH]n2)Cc2ccc(-c3ccc(Cl)cc3)cc2C1` (stereo not drawn) the value was 108 to 110 °C. The same measure for `Clc1ccc(CN2CC=C(/C=C/c3cccc(Cl)c3)CC2)cc1`: 94 to 96 °C; for `N#Cc1ccc(N(Cc2ccc(OS(N)(=O)=O)cc2)n2cnnc2)cc1-c1cc2ccccc2o1`: 202 to 203 °C.

Regarding `COC(=O)c1cc(-c2c(OC)cccc2OC)n(-c2ccc(NS(=O)(=O)c3ccc(C)cc3)cc2CC(C)C)n1`, the melting point amounted to 224 °C. The same measure for `COc1cc(Nc2ncc(C#N)c(-c3ccc(CO)cc3)n2)cc(OC)c1OC`: 188 to 191 °C; for `CCCCCc1c(C(C)(C)O)nc(C(C)C)c(CO)c1-c1ccc(F)cc1`: 180 to 182 °C. The same measure for `CCOCc1nc2c(N)nc3ccccc3c2n1CCCC(C)=O`: 173 to 175 °C; for `CCOP(=O)(/C=C/c1cn(-c2ccccc2)nc1OCc1ccc(OCc2nc(-c3cccc(C(N)=O)c3)oc2C)c(OC)c1)OCC`: 127 to 128 °C; for `CCOC(=O)c1[nH]nc(-c2ccc(C#N)cc2)c1C`: 148 °C. The same measure for `N#CCC1CC(=O)N(c2ccc(Cl)cc2)C1` (stereo not drawn): 92 to 94 °C; for `CCn1cc(C=O)c2nc(N3CCN(Cc4ccccc4)CC3)ncc2c1=O`: 152 °C; for `S=C(NCc1ccc(Cl)cc1Cl)N1CCc2c([nH]c3ccccc23)C1c1ccc2c(c1)OCO2` (stereo not drawn): 124 to 127 °C.

`O=[N+]([O-])c1ccc(NCCc2ccccc2)cc1` had a melting point of 57 to 59 °C. In turn, `Cc1c(C)c2c(c(C)c1O)CCC(C)(O)O2` (stereo not drawn) displayed a melting point of 105 to 107 °C. For `Cc1cc2c(cc1-c1ccc(C#CC(=O)O)s1)C(C)(C)CCC2(C)C` the value was 138 to 140 °C; for `CCOC(C#CC(=O)c1cc(OC)c(OC)c(OC)c1)OCC`, 52 to 54 °C; for `Nc1ccc(Br)cc1C(O)c1ccccn1` (stereo not drawn), 104 to 105 °C. The same measure for `CCCCNC(=O)c1ccc(Cl)c(-n2nc(CCCC)n(Cc3ccc(-c4ccccc4S(=O)(=O)NC(=O)OC(C)(C)C)cc3F)c2=O)c1`: 98 to 100 °C; for `CN1C(=O)SC(=Cc2ccc([N+](=O)[O-])cc2)C1=O`: 233 to 234 °C; for `COc1ccc(OCCO)cc1`: 69 to 71 °C. The same measure for `O=C1COc2cc(SCc3ccc(Cl)cc3)ccc2N1`: 174 to 175 °C.

`CCC(CC)NC(=O)C(C)(C)COc1cccc2nc(C)c(C(=O)O)c(N)c12`: the melting point lay within 172 to 174 °C. Turning to `Cc1c(O)cc2c(c1C)CCC2(C)C`, the melting point was in the range of 117 to 118 °C.

`CC1(C)CC(Nc2nc(Cl)nc(NC3CC(C)(C)NC(C)(C)C3)n2)CC(C)(C)N1` gave a melting point of 270 °C. The same measure for `OC1(c2ccc3c(c2)OCO3)C(c2ccc(Cl)cc2)SC2=NCCCCN21` (stereo not drawn): 105 to 107 °C; for `Fc1cccc(COc2ccc(Nc3ncnc4cc(C#Cc5nccs5)sc34)cc2Cl)c1`: 235 °C. In the case of `Cc1cccc(Cl)c1Nc1ccccc1CC(N)=O`, the melting point fell in the range of 139 to 141 °C.

Regarding `COC(=O)CC/C(C)=C/Cc1c(C#N)c2c(c(C)c1OC)COC2=O`, the melting point lay within 87 to 88 °C. For `O=Cc1ccc(-c2nnc(-c3ccccc3[N+](=O)[O-])o2)cc1` the value was 189 to 190 °C.

In turn, `O=C(c1ccc(Cl)c(Cl)c1)N1CCC(Br)C(c2ccccc2)=N1` (stereo not drawn) had a melting point of 168 to 169 °C. For `CCON=C(CC)C1=C(O)CC(c2ccc3c(c2)OCC(=O)N3)CC1=O` (stereo not drawn), the melting point lay in the range of 160 to 162 °C. The same measure for `COc1ccc(-c2[nH]cnc2-c2cc(OC)c(N)c(OC)c2)cc1N`: 140 to 142 °C; for `O=C(c1ccc(F)cc1)C1CCN(CCCCl)CC1`: 66.5 to 68.5 °C; for `COc1ccc(C(=O)c2ccc3cc(C(=O)c4ccc(OC)cc4)ccc3c2)cc1`: 251 °C. The same measure for `CC(C)(C)OC(=O)CCc1cccc(-c2nc(=O)c3ccccc3s2)n1`: 166 °C. The same measure for `Cc1c(CC(C)(C)C(=O)O)n(Cc2ccc(Cl)cc2)c2ccc(Cl)cc12`: 142 °C; for `C[C@H](O)[C@H](CNC(=O)c1ccccc1)C(=O)O`: 99 to 101 °C; for `COc1cccc2c(=O)[nH]ccc12`: 215 to 217 °C. In turn, `COc1ccc(C2(C(C)NCc3ccncc3)CCC2)cc1` (stereo not drawn) gave a melting point of 110 to 113 °C. Turning to `Cn1ccnc1Sc1ccc(Nc2c(C#N)cnc3cc(N4CCC(N5CCCC5)CC4)c(N)cc23)cc1Cl`, the melting point is 265 to 267 °C. The same measure for `O=C(Oc1ccccc1)[C@H]1O[C@@H]1C1CCCCC1`: 59 to 60 °C; for `CC(=O)ON=C(c1ccc(OC(C)=O)cc1O)c1ccccc1F`: 132 to 134 °C. The same measure for `CCOc1cc2c(c(F)c1F)OC(C1CCC(CC)CC1)CC2` (stereo not drawn): 90 °C; for `Cc1cc(SCc2ccc(OCc3ccc(C(F)(F)F)cc3)cc2)c2c(c1OCC(=O)O)CCC2`: 165 to 167 °C. The compound `Cn1c(C(F)(F)F)cc(=O)n(-c2ccc3snc(C4OCCCS4)c3c2)c1=O` (stereo not drawn) came in with a melting point of 125 to 130 °C.
